Test results from patent US20240425456A1, “DEGRADER” (ASKA PHARMACEUTICAL CO., LTD., priority 2021, published 2024).

Tests used:
Assay type in all cases: cell-based
JAK2 = molecular target: T1, JAK2 (Homo sapiens, UniProt O60674); assay: Degradation-inducing effect on JAK in Jurkat cells (chemiluminescent Western blotting), JAK2; details: 1 μmol/L, 6 hours, corrected by GAPDH, DMSO as 100%
T1 construct: endogenous in cells; host or cells: Jurkat cells
Description: (§1) The degradation-inducing effect of the compound of the present invention on JAK family proteins was evaluated in vitro using Jurkat cells, of which cell line was derived from human leukemic T cells.
(§2) JAK1, JAK2, JAK3, and Tyk2-positive Jurkat cells were seeded at a density of 1×10^5 cells/mL on 10 cm diameter dishes and then cultured in RPMI 1640 medium (FUJIFILM Wako Pure Chemical: catalog number: 189-02025) containing 10% FBS (Thermo Fisher Scientific: catalog number: 10437-028) at 5% CO2 and 37° C. for 3 days. Then, each of the test compounds (compounds of Examples 1 to 11 and Comparative Examples 1 and 2) was added to the dish at a final concentration of 1 μmol/L, and the cells were cultured in the presence of the test compound for 6 hours. After that, the cell culture medium was collected in a 15 mL centrifuge tube (1000 rpm (240× g), room temperature, 5 min), followed by washing with PBS (1000 rpm (240× g), room temperature, 5 min). Then, the cells in the centrifuge tube were collected in a 1.5 mL tube (3000 rpm (860× g), 4° C., 5 min), lysed using RIPA buffer (25 mmol/L Tris-HCl (pH 7.4), 25 mmol/L NaCl, 0.5 mmol/L EGTA (pH 8.0), 0.1% SDS, 1% protease inhibitor), sonicated at ice temperature (cycles of [7.5 sec sonication, 5 sec off] for 5 min) and subjected to centrifugation (15000 rpm (21600× g), 4° C., 30 min). The thus-obtained supernatant was used as the protein solution. Using the BCA protein assay kit (Thermo Fisher Scientific: catalog number: 23225), the protein concentration of the protein solution of each test compound was measured according to the kit instructions, and then adjusted to 1.4 mg/mL with RIPA buffer. The thus-adjusted protein solutions were subjected to a fully automated Western blotting device (Simple Westerns Wes: proteinSimple) to detect the protein levels (JAK1, JAK2, JAK3, and Tyk2 as the target proteins, and GAPDH (Glyceraldehyde 3-phosphate dehydrogenase) as the internal standard protein) in the protein solutions by chemiluminescent Western blotting.
(§3) Furthermore, the luminescence levels of JAK1, JAK2, JAK3, and Tyk2 detected by chemiluminescent Western blotting were quantified numerically by using an analysis software (Compass software for Simple Western (version 4.0.0)) attached to the fully automated Western blotting device. The numerical values of the quantified luminescence levels were corrected by the protein levels of the internal standard protein, i.e., GAPDH, (target protein levels/GAPDH protein levels), and compared among the test compounds with dimethyl sulfoxide (DMSO) as 100%.

Tyk2 = molecular target: T2, Tyk2 (Homo sapiens, UniProt P29597); assay: Degradation-inducing effect on JAK in Jurkat cells (chemiluminescent Western blotting), Tyk2; details: 1 μmol/L, 6 hours; for JAK protein ratio of Jurkat cells after treatment of each test compound: Tyk2: corrected by GAPDH, DMSO as 100%
T2 construct: endogenous in cells; host or cells: Jurkat cells
T2 sequence (P29597 whole entry): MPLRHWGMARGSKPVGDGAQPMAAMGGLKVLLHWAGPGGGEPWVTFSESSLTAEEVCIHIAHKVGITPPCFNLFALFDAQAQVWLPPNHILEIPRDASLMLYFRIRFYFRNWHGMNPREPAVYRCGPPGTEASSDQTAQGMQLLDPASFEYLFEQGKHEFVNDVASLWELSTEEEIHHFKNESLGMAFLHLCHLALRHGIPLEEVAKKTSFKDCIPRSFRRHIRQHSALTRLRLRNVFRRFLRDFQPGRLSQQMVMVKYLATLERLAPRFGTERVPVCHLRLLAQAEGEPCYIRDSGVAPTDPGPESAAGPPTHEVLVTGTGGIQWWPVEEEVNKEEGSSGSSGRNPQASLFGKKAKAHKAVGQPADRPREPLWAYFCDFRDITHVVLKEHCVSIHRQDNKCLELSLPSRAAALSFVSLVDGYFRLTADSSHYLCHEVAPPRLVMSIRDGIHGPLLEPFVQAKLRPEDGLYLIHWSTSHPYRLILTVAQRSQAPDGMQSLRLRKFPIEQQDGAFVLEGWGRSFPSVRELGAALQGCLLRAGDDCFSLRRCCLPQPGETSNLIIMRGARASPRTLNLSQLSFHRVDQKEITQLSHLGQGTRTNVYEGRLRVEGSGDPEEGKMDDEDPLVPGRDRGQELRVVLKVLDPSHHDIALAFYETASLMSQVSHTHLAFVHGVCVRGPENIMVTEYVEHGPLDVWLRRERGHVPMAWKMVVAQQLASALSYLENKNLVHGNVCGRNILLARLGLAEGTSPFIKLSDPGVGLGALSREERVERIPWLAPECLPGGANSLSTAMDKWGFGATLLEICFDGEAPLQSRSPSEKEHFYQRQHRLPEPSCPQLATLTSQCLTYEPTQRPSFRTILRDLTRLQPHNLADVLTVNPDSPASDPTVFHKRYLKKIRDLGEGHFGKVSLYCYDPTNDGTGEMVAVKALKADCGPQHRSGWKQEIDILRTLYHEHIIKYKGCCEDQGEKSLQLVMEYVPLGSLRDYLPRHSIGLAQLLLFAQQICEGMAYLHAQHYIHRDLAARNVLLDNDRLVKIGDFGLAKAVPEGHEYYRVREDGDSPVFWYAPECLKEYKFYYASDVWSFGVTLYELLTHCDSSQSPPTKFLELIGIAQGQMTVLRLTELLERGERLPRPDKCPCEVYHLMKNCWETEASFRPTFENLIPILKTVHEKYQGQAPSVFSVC
Description: as §1, §2, §3

JAK3 = molecular target: T3, JAK3 (Homo sapiens, UniProt P52333); assay: Degradation-inducing effect on JAK in Jurkat cells (chemiluminescent Western blotting), JAK3; details: 1 μmol/L, 6 hours, corrected by GAPDH, DMSO as 100%, read-out: JAK protein ratio of Jurkat cells after treatment of each test compound: JAK3
T3 construct: endogenous in cells; host or cells: Jurkat cells
T3 sequence (P52333 1-1124): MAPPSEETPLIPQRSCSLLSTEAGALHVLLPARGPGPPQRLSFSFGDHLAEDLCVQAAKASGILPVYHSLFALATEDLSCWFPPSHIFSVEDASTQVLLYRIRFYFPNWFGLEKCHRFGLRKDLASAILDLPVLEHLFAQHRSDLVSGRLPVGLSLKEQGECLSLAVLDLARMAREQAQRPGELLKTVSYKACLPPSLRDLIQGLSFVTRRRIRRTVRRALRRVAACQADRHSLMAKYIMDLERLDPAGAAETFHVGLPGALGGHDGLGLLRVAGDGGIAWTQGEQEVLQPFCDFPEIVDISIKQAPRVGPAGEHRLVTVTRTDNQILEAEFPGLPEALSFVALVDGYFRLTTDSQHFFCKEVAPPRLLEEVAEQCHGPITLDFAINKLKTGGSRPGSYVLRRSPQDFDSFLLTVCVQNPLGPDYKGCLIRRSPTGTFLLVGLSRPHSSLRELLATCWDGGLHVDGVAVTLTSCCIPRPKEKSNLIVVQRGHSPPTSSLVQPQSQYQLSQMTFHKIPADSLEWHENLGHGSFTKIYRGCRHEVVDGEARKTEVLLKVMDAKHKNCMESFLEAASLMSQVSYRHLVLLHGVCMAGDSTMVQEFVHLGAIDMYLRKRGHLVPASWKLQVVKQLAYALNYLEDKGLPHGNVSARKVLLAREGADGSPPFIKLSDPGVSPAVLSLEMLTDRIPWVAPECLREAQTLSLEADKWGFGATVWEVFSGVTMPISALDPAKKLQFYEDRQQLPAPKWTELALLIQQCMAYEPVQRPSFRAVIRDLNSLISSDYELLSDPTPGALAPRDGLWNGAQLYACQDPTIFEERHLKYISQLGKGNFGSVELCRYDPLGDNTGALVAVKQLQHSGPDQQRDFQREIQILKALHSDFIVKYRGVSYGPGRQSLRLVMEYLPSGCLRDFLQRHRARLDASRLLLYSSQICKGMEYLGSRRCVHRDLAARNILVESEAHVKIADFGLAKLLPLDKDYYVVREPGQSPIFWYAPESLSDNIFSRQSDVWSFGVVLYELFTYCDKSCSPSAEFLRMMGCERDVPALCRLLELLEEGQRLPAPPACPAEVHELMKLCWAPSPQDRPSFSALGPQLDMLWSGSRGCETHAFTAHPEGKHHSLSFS
Description: as §1, §2, §3

JAK1 = molecular target: T4, JAK1 (Homo sapiens, UniProt P23458); assay: Degradation-inducing effect on JAK in Jurkat cells (chemiluminescent Western blotting), JAK1; details: 1 μmol/L, 6 hours, corrected by GAPDH, DMSO as 100%
T4 construct: endogenous in cells; host or cells: Jurkat cells
T4 sequence (P23458 whole entry): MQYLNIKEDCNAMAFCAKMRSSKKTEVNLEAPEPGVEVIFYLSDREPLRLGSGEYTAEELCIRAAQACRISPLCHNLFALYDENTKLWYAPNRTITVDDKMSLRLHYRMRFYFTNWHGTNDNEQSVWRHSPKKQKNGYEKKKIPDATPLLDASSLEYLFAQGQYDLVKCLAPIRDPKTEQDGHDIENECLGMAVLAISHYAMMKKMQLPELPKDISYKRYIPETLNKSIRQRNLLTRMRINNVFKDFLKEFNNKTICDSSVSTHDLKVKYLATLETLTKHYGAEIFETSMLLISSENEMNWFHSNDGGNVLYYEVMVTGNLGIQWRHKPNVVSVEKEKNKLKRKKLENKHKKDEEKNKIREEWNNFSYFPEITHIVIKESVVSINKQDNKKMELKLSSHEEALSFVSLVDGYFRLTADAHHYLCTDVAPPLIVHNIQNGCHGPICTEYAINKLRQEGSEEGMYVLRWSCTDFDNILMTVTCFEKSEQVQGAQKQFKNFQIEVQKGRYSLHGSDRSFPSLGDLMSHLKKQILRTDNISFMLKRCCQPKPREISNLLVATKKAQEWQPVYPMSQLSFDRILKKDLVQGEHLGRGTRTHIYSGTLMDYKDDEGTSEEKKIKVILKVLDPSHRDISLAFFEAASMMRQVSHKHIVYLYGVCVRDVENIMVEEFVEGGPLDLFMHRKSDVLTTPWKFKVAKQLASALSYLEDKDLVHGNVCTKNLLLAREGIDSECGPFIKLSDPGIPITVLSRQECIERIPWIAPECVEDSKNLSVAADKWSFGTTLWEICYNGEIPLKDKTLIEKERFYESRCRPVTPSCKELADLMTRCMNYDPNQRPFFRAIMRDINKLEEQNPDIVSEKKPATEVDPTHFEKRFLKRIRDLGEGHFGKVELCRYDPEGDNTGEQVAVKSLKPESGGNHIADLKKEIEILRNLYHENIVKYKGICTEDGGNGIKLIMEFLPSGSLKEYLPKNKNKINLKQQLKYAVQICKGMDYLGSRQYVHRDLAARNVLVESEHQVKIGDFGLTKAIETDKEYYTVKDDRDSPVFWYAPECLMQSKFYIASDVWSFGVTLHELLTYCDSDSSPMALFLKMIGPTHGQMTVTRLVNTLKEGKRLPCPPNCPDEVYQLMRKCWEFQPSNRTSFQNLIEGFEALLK
Description: as §1, §2, §3

T1 sequence (O60674 whole entry): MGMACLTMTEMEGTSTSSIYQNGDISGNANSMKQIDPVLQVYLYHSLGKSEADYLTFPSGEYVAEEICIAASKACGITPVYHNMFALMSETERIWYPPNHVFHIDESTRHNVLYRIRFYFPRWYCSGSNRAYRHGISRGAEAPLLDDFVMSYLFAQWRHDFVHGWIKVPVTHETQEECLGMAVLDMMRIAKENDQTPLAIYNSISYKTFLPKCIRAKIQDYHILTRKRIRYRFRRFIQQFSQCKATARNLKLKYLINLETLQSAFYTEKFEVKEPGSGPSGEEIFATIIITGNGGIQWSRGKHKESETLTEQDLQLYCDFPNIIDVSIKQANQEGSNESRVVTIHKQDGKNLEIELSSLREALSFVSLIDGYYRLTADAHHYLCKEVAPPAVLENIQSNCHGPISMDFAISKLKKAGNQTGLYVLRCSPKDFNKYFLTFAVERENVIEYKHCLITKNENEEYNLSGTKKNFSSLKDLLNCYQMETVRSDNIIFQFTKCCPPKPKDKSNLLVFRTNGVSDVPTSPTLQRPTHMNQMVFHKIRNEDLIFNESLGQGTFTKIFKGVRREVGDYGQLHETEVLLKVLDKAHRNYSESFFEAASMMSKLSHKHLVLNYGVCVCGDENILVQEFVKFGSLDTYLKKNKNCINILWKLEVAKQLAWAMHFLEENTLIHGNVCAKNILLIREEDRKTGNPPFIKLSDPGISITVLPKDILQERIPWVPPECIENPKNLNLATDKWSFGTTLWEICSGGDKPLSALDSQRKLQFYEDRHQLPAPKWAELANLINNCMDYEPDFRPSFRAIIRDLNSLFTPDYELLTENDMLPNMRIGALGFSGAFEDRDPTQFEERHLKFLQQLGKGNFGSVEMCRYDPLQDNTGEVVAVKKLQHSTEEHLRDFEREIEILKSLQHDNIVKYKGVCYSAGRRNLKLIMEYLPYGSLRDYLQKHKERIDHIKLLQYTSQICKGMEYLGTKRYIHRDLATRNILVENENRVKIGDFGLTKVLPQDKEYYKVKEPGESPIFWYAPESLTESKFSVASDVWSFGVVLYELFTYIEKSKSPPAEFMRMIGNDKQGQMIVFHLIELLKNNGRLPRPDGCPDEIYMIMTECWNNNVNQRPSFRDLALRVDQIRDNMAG

Row | JAK protein ratio of Jurkat cells after treatment of each test compound: JAK2 (JAK2) [%] | protein level of Tyk2 (in words) (Tyk2) | JAK protein ratio of Jurkat cells after treatment of each test compound: Tyk2 (Tyk2) [%] | JAK3 protein level relative to DMSO at 1 µM (JAK3) [%] | JAK protein ratio of Jurkat cells after treatment of each test compound: JAK1 (JAK1) [%] | Structure (SMILES)
1 | 87.6 | not reduced | 78.9 | 83.3 | 92.4 | CNC(=O)c1cnc(Nc2ccc(F)cn2)cc1Nc1cccc(C(=O)NCCCCCCCCCC(=O)N[C@H](C(=O)N2C[C@H](O)C[C@H]2C(=O)NCc2ccc(-c3scnc3C)cc2)C(C)(C)C)c1OC [Comparative Example 1, 6-((5-Fluoropyridin-2-yl)amino)-4-((3-((10-(((S)-1-((2S,4R)-4-hydroxy 2-((4-(4-methylthiazol-5-yl)benzyl)carbamoyl)pyrrolidin-1-yl)-3,3-dimethyl-1-oxobutan-2-yl)amino)-10-oxodecyl)carbamoyl)-2-methoxyphenyl)amino)-N-methylnicotinamide, reference compound]
2 | 101.7 | not reduced | 100.1 | 89.8 | 108.7 | CNC(=O)c1cnc(Nc2ccc(F)cn2)cc1Nc1cccc(C(=O)OCCCCCCCCCC(=O)N[C@H](C(=O)N2C[C@H](O)C[C@H]2C(=O)NCc2ccc(-c3scnc3C)cc2)C(C)(C)C)c1OC [Comparative Example 2, 10-(((S)-1-((2S,4R)-4-Hydroxy 2-((4-(4-methylthiazol-5-yl)benzyl)carbamoyl)pyrrolidin-1-yl)-3,3-dimethyl-1-oxobutan-2-yl)amino)-10-oxodecyl 3-((2-((5-fluoropyridin-2-yl)amino)-5-(methylcarbamoyl)pyridin-4-yl)amino)-2-methoxybenzoate, reference compound]
3 | 121.3 | – | 82.8 | 114 | 111.9 | CNC(=O)c1cnc(Nc2ccc(C(=O)NCCCC(=O)N[C@H](C(=O)N3C[C@H](O)C[C@H]3C(=O)NCc3ccc(-c4scnc4C)cc3)C(C)(C)C)cn2)cc1Nc1cccc(C(=O)NC)c1OC [Example 1]
4 | 112.6 | – | 48.8 | 118 | 139.2 | CNC(=O)c1cnc(Nc2ccc(C(=O)NCCCCCC(=O)N[C@H](C(=O)N3C[C@H](O)C[C@H]3C(=O)NCc3ccc(-c4scnc4C)cc3)C(C)(C)C)cn2)cc1Nc1cccc(C(=O)NC)c1OC [Example 2, 6-((5-((6-(((S)-1-((2S,4R)-4-Hydroxy-2-((4-(4-methylthiazol-5-yl)benzyl)carbamoyl)pyrrolidin-1-yl)-3,3-dimethyl-1-oxobutan-2-yl)amino)-6-oxohexyl)carbamoyl)pyridin-2-yl)amino)-4-((2-methoxy-3-(methylcarbamoyl)phenyl)amino)-N-methylnicotinamide]
5 | 117.6 | – | 51.6 | 97.5 | 118.2 | CNC(=O)c1cnc(Nc2ccc(C(=O)NCCCCCCCC(=O)N[C@H](C(=O)N3C[C@H](O)C[C@H]3C(=O)NCc3ccc(-c4scnc4C)cc3)C(C)(C)C)cn2)cc1Nc1cccc(C(=O)NC)c1OC [Example 3, 6-((5-((8-(((S)-1-((2S,4R)-4-Hydroxy-2-((4-(4-methylthiazol-5-yl)benzyl)carbamoyl)pyrrolidin-1-yl)-3,3-dimethyl-1-oxobutan-2-yl)amino)-8-oxooctyl)carbamoyl)pyridin-2-yl)amino)-4-((2-methoxy-3-(methylcarbamoyl)phenyl)amino)-N-methylnicotinamide]
